26 molecules from patent US7265152B2 (ViroPharma Incorporated, priority 2002, dated 2007) can be followed below.

Test [1] deals with HCV replicon (BB7 sequence) in Huh-7-Clone A cells. Nature of the test: HCV replicon assay: ELISA of NS5A protein in replicon-containing cells (Inhibition of Viral RNA Replication). Format: cell-based. Conditions: Hepatitis C virus. An outline of the steps: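 EC50 taken from an 8-point serially diluted dose curve, with NS5A level as read-out: fixed cells probed with primary monoclonal and HRP-conjugated secondary, TMB developed 30 min, OD 650 nm. Compound exposure 72 h in Huh-7-Clone A replicon cells (BB7 sequence).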
Background: In antiviral work, replicon cells carry a viral genome segment that copies itself.

Another test has as its target T1, HCV NS5B (Hepatitis C virus genotype 1b, UniProt Q9WMX2).
T1 construct: fusion protein, of which the carboxyl terminal 21 amino acids were removed to enhance its solubility; His tag (GSHHHHHH); made in house; host or cells: E. coli
Nature of the test: Inhibition of viral RNA-dependent RNA polymerase (RdRp), in vitro biochemical assay. The arrangement: species or system HCV genotype 1b virus (BB7). As to conditions: read-out: HCV pol-BB7 IC50. An outline of the steps:
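IC50 values are the concentrations that halve in vitro RNA synthesis by HCV NS5B polymerase. The enzyme was a C-terminally truncated (Δ21), His-tagged genotype 1b (BB7 consensus) protein purified from E. coli.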

[2] abbreviates: Huh-7-Clone A, NS5A ELISA, 72-hour incubation, ranges of EC50, read-out: Replicon.
[3] abbreviates: purified His-tagged NS5B (BB7), carboxyl terminal 21 amino acids removed.
The mark [4] stands for this setting: HCV replicon, range of EC50, read-out: Replicon.
The mark [5] stands for this setting: HCV NS5B RdRp, BB7, reported as range class.
[6] abbreviates: HCV replicon assay, ranges of EC50, read-out: Replicon.
[7] abbreviates: HCV NS5B RdRp, BB7, class symbols A-D.
Where [8] appears, read: HCV NS5B RdRp, BB7, activity class.
[9] abbreviates: HCV replicon assay, ranges of 50% effective concentration (EC50), read-out: Replicon.
Where [10] appears, read: HCV NS5B polymerase, BB7 (genotype 1b), values given as range classes A-D.
[11] abbreviates: ranges of EC50 in HCV replicon assay, read-out: Replicon.

Where two headings read alike, the source gives them in different places.

By IC50 is commonly meant the concentration at which inhibition is half-maximal. As for `CCNc1cc2oc(-c3ccc(F)cc3)c(C(=O)NC)c2cc1OC(C)C` [Example 22, 6-Ethylamino-2-(4-fluoro-phenyl)-5-isopropoxy-benzofuran-3-carboxylic acid methylamide], in test [1] (setting [2]), the EC50 was less than 1 µM. The IC50 at HCV NS5B (setting [3]) is no more than 500 nM.

In the case of `CNC(=O)c1c(-c2ccc(F)cc2)oc2cc(-c3ncc[nH]3)c(OC(C)C)cc12` [Example 244, 2-(4-Fluoro-phenyl)-6-(1H-imidazol-2-yl)-5-isopropoxy-benzofuran-3-carboxylic acid methylamide], in test [1] (setting [4]), the EC50 was less than 1 µM. Also, the IC50 on HCV NS5B (setting [5]) was no more than 500 nM.

In the case of `CNC(=O)c1c(-c2ccc(F)cc2)oc2cc(N(C)S(C)(=O)=O)c(Oc3nc(CCl)ns3)cc12` [Example 321, 5-(3-Chloromethyl-[1,2,4]thiadiazol-5-yloxy)-2-(4-fluoro-phenyl)-6-(methanesulfonyl-methyl-amino)-benzofuran-3-carboxylic acid methylamide], the EC50 in test [1] (setting [6]) is less than 1 µM. In addition, on HCV NS5B (setting [7]), the IC50 is no more than 500 nM.

As to `CCOc1ccc2oc(-c3ccccc3)c(C(=O)NC)c2c1` [Example 57, 5-Ethoxy-2-phenyl-benzofuran-3-carboxylic acid methylamide], the EC50 in test [1] (setting [2]) was greater than 30 µM. Further, the IC50 at HCV NS5B (setting [3]) lay within 500 to 5000 nM.

`CNC(=O)c1c(-c2ccc(F)cc2)oc2cc(N3CC[S+]([O-])CC3)c(OC(C)C)cc12` [Example 188, 2-(4-Fluoro-phenyl)-5-isopropoxy-6-(1-oxo-thiomorpholin-4-yl)-benzofuran-3-carboxylic acid methylamide]: the EC50 in test [1] (setting [4]) is less than 10 µM. At HCV NS5B (setting [5]), the IC50 was in the range of 5000 to 30000 nM.

Consider `CCc1cc2c(C(=O)NC)c(-c3ccc(F)cc3)oc2cc1N(Cc1cscn1)S(C)(=O)=O` [Example 343, 5-Ethyl-2-(4-fluoro-phenyl)-6-(methanesulfonyl-thiazol-4-ylmethyl-amino)-benzofuran-3-carboxylic acid methylamide], for which the EC50 in test [1] (setting [6]) was less than 1 µM. In addition, the IC50 at HCV NS5B (setting [8]) was no more than 500 nM.

Regarding `CNC(=O)c1c(-c2ccc(F)cc2)oc2cc(N(C)S(C)(=O)=O)c(OCc3nnc(N)[nH]3)cc12` [Example 402, 5-(5-Amino-4H-[1,2,4]triazol-3-ylmethoxy)-2-(4-fluoro-phenyl)-6-(methanesulfonyl-methyl-amino)-benzofuran-3-carboxylic acid methylamide], the EC50 in test [1] (setting [9]) is less than 1 µM. The IC50 at HCV NS5B (setting [10]) is no more than 500 nM.

Regarding `CNC(=O)c1c(-c2ccc(F)cc2)oc2ccc(OCc3cccc(C(=O)OC)c3)cc12` [Example 258, 3-[2-(4-Fluoro-phenyl)-3-methylcarbamoyl-benzofuran-5-yloxymethyl]-benzoic acid methyl ester], in test [1] (setting [6]), the EC50 was greater than 30 µM. Besides, the IC50 on HCV NS5B (setting [7]) was no more than 500 nM.

Turning to `CNC(=O)c1c(-c2ccc(F)cc2)oc2cc(-c3c(C)noc3COC)c(OC)cc12` [Example 280, 2-(4-Fluoro-phenyl)-5-methoxy-6-(5-methoxymethyl-3-methyl-isoxazol-4-yl)-benzofuran-3-carboxylic acid methylamide], in test [1] (setting [6]), the EC50 is less than 1 µM. Also, the IC50 at HCV NS5B (setting [7]) is no more than 500 nM.

On to `CNC(=O)c1c(-c2ccc(F)cc2)oc2cc(C3CCN(S(C)(=O)=O)C3)c(OC)cc12` (stereo not shown) [Example 334, 2-(4-Fluoro-phenyl)-6-(1-methanesulfonyl-pyrrolidin-3-yl)-5-methoxy-benzofuran-3-carboxylic acid methylamide], for which the EC50 in test [1] (setting [6]) is less than 1 µM. Besides, on HCV NS5B (setting [8]), the IC50 is no more than 500 nM.

Consider `CNC(=O)c1c(-c2ccc(F)cc2)oc2cc(N(C)C)c(OC(C)C)cc12` [Example 20, 6-Dimethylamino-2-(4-fluoro-phenyl)-5-isopropoxy-benzofuran-3-carboxylic acid methylamide], for which, in test [1] (setting [2]), the EC50 is less than 1 µM. Moreover, the IC50 on HCV NS5B (setting [3]) was no more than 500 nM.

As to `CNC(=O)c1c(-c2ccc(F)cc2)oc2cc(N(C)S(C)(=O)=O)c(OCc3cscn3)cc12` [Example 319, 2-(4-Fluoro-phenyl)-6-(methanesulfonyl-methyl-amino)-5-(thiazol-4-ylmethoxy)-benzofuran-3-carboxylic acid methylamide], in test [1] (setting [6]), the EC50 was less than 1 µM. The IC50 on HCV NS5B (setting [7]) is 500 to 5000 nM.

With `CCc1cc2c(C(=O)NC)c(-c3ccc(F)cc3)oc2cc1NS(C)(=O)=O` [Example 44, 5-Ethyl-2-(4-fluoro-phenyl)-6-methanesulfonylamino-benzofuran-3-carboxylic acid methylamide], the EC50 in test [1] (setting [2]) was less than 10 µM. On HCV NS5B (setting [3]), the IC50 is no more than 500 nM.

On to `CNC(=O)c1c(-c2ccc(F)cc2)oc2cc(OC)c(OC(C)C)cc12` [Example 158, 2-(4-Fluoro-phenyl)-5-isopropoxy-6-methoxy-benzofuran-3-carboxylic acid methylamide], for which the EC50 in test [1] (setting [11]) is less than 10 µM. Also, the IC50 at HCV NS5B (HCV NS5B RdRp, BB7 genotype 1b) was no more than 500 nM.

As for `CC(C)Oc1cc2c(C(=O)NC3CC3)c(-c3ccc(F)cc3)oc2cc1NS(C)(=O)=O` [Example 199, 2-(4-Fluoro-phenyl)-5-isopropoxy-6-methanesulfonylamino-benzofuran-3-carboxylic acid cyclopropylamide], the EC50 in test [1] (setting [4]) was less than 1 µM. Moreover, the IC50 at HCV NS5B (setting [5]) was no more than 500 nM.

For the molecule `CNC(=O)c1c(-c2ccc(F)cc2)oc2cc(C3CCCN3C(=O)NC)c(OC)cc12` (stereo not shown) [Example 377, 2-[2-(4-Fluoro-phenyl)-5-methoxy-3-methylcarbamoyl-benzofuran-6-yl]-pyrrolidine-1-carboxylic acid methylamide], in test [1] (setting [6]), the EC50 is less than 10 µM. Further, the IC50 at HCV NS5B (setting [8]) was no more than 500 nM.

`CNC(=O)c1c(-c2ccc(F)cc2)oc2cc(NS(C)(=O)=O)c(O)cc12` [Example 174, 2-(4-Fluoro-phenyl)-5-hydroxy-6-methanesulfonylamino-benzofuran-3-carboxylic acid methylamide]: in test [1] (setting [4]), the EC50 was less than 30 µM. For the same molecule, the half-inhibitory concentration (IC50) at HCV NS5B (setting [5]) fell in the range of 500 to 5000 nM.

`CNC(=O)c1c(-c2ccc(N3CCCC3)cc2)oc2ccc(OC(C)C)cc12` [Example 95, 5-Isopropoxy-2-(4-pyrrolidin-1-yl-phenyl)-benzofuran-3-carboxylic acid methylamide]: the EC50 in test [1] (setting [11]) was less than 30 µM. Moreover, the IC50 on HCV NS5B (HCV NS5B RdRp, BB7 genotype 1b) fell in the range of 5000 to 30000 nM.

`CNC(=O)c1c(-c2ccc(F)cc2)oc2cc(N(CCOC)S(C)(=O)=O)c(OC(C)C)cc12` [Example 193, 2-(4-Fluoro-phenyl)-5-isopropoxy-6-[methanesulfonyl-(2-methoxy-ethyl)-amino]-benzofuran-3-carboxylic acid methylamide]: in test [1] (setting [4]), the EC50 is less than 1 µM. On HCV NS5B (setting [5]), the IC50 was no more than 500 nM.

As to `CNC(=O)c1c(-c2ccc(F)cc2)oc2cc(N(CC3(CO)CC3)S(C)(=O)=O)c(OCC3(CO)CC3)cc12` [Example 422, 2-(4-Fluoro-phenyl)-5-(1-hydroxymethyl-cyclopropylmethoxy)-6-[(1-hydroxymethyl-cyclopropylmethyl)-methanesulfonyl-amino]-benzofuran-3-carboxylic acid methylamide], in test [1] (setting [9]), the EC50 is less than 10 µM. Besides, at HCV NS5B (setting [10]), the IC50 was 500 to 5000 nM.

Regarding `CNC(=O)c1c(-c2ccc(F)cc2)oc2cc(N3CCOCC3)c(OCc3cscn3)cc12` [Example 35, 2-(4-Fluoro-phenyl)-6-morpholin-4-yI-5-(thiazol-4-ylmethoxy)-benzofuran-3-carboxylic acid methylamide], the EC50 in test [1] (setting [2]) is less than 1 µM. The IC50 on HCV NS5B (setting [3]) was no more than 500 nM.

Turning to `CNC(=O)c1c(-c2ccccc2)oc2c(C)cc(OC)cc12` [Example 63, 5-Methoxy-7-methyl-2-phenyl-benzofuran-3-carboxylic acid methylamide], the EC50 in test [1] (setting [2]) was less than 10 µM. For the same molecule, at HCV NS5B (setting [3]), the IC50 fell in the range of 500 to 5000 nM.

For `CNC(=O)c1c(-c2ccc(F)cc2)oc2cc(N(C)S(C)(=O)=O)c(OCc3ccc(C(=O)O)c(O)c3)cc12` [Example 39, 4-[2-(4-Fluoro-phenyl)-6-(methanesulfonyl-methyl-amino)-3-methylcarbamoyl-benzofuran-5-yloxymethyl]-2-hydroxy-benzoic acid], the EC50 in test [1] (setting [2]) was less than 10 µM. The IC50 at HCV NS5B (setting [3]) is no more than 500 nM.

Take `CNC(=O)c1c(-c2ccoc2)oc2ccc(OC)cc12` [Example 1, 2-Furan-3-yl-5-methoxy-benzofuran-3-carboxylic acid methylamide]: the EC50 in test [1] (72 h, read-out: Replicon (μM)) was less than 30 µM. For the same molecule, on HCV NS5B (setting [3]), the IC50 was 500 to 5000 nM.

For the molecule `CCOC(=O)c1ccc(NC(=O)COc2cc3c(C(=O)NC)c(-c4ccc(F)cc4)oc3cc2N(C)S(C)(=O)=O)cc1` [Example 359, 4-{2-[2-(4-Fluoro-phenyl)-6-(methanesulfonyl-methyl-amino)-3-methylcarbamoyl-benzofuran-5-yloxy]-acetylamino}-benzoic acid ethyl ester], in test [1] (setting [6]), the EC50 was less than 10 µM. For the same molecule, the IC50 on HCV NS5B (setting [8]) is no more than 500 nM.

For the molecule `CNC(=O)c1c(-c2ccc(F)cc2)oc2cc(NC(C)=O)c(OC)cc12` [Example 18, 6-Acetylamino-2-(4-fluoro-phenyl)-5-methoxy-benzofuran-3-carboxylic acid methylamide], the EC50 in test [1] (setting [2]) was less than 1 µM. The IC50 at HCV NS5B (setting [3]) is no more than 500 nM.
